Experimental data reported in patent publication US20230355586A1, “Application of Valdecoxib in preparation of medications for preventing and treating glaucoma” (Central South University, priority 2022, published 2023).
“Also recorded” adds a separate entry of the source.

Tests used:
R28 cells [1] = experiment: Cell death of R28 cells pretreated with CCT020312; type: cell-based, rat; details: R28 cells pretreated with different concentrations of CCT020312
PERK-ATF4-CHOP pathway [2] = experiment: Western blot of ER stress, PERK-ATF4-CHOP pathway and apoptosis proteins in R28 OGD/R model; type: cell-based, rat; details: R28 cells
R28 cells [3] = experiment: CCK-8 cell viability in R28 OGD/R model; type: cell-based, rat; details: 2 h post-OGD/R, vs. OGD/R group
Protocol: (§1) Through animal ethics, cell culture, animal selection, reagent and antibody information, anterior chamber compression rat model is established, […] cell OGD/R (oxygen-glucose deprivation/reoxygenation) model is established; HE (hematoxylin-eosin) staining, apoptosis by TUNEL (TdT-mediated dUTP Nick-End Labeling) detection, cell viability by CCK8 (Cell Counting Kit-8), Western blot assay, Annexin V-FITC/PI flow cytometry, PI/Hoechest staining and immunofluorescence assay are performed. The cell death rate at multiple time points with the OGD/R model is detected using PI staining. PI-positive cells are identified as dead cells. The proportion of PI-positive cells at multiple time points are calculated. […] To identify whether the valdecoxib's effect involved an anti-apoptosis mechanism, FCM (flow cytometry) is performed, and a further analysis indicates both that OGD/R induced cell apoptosis and the valdecoxib decreases the cell apoptosis rate, as shown in FIGS. 1E-1H.

PERK-ATF4-CHOP pathway [4] = experiment: Western blot of retina lysates in retinal I/R model; type: in vivo, rats; details: rat retina
Protocol: Through animal ethics, cell culture, animal selection, reagent and antibody information, anterior chamber compression rat model is established, […] cell OGD/R (oxygen-glucose deprivation/reoxygenation) model is established; HE (hematoxylin-eosin) staining, apoptosis by TUNEL (TdT-mediated dUTP Nick-End Labeling) detection, cell viability by CCK8 (Cell Counting Kit-8), Western blot assay, Annexin V-FITC/PI flow cytometry, PI/Hoechest staining and immunofluorescence assay are performed. […] The expression levels of the apoptosis-related proteins are examined in the control, I/R, I/R+DMSO and I/R+valdecoxib groups. […] The expression levels of p-PERK, cleaved caspase 3 and GRP78 in RGCs are evaluated by immunofluorescence.

R28 cells [5] = experiment: Annexin V-FITC/PI flow cytometry apoptosis in R28 OGD/R model; type: cell-based, rat; details: vs. OGD/R group
Protocol: as §1

[6] = test system: RGCs (retinal ganglion cells); experiment: TUNEL/RBPMS apoptosis assay of retina in aHIOP retinal I/R model; type: in vivo, SD (Sprague-Dawley) rats; details: rat I/R model, compared to the I/R group
Protocol: (§2) Through animal ethics, cell culture, animal selection, reagent and antibody information, anterior chamber compression rat model is established, R28 cell OGD/R (oxygen-glucose deprivation/reoxygenation) model is established; HE (hematoxylin-eosin) staining, apoptosis by TUNEL (TdT-mediated dUTP Nick-End Labeling) detection, cell viability by CCK8 (Cell Counting Kit-8), Western blot assay, Annexin V-FITC/PI flow cytometry, PI/Hoechest staining and immunofluorescence assay are performed.
(§3) In order to evaluate the potential therapeutic prospect of VAL for saving RGCs (retinal ganglion cells) in glaucoma retinal injury, the glaucoma retinal IR is simulated by performing an aHIOP (acute high intraocular pressure) model on SD (Sprague-Dawley) rats. The rats are sacrificed and their eyeballs are removed at 1, 3 or 7 days post-IRI. HE staining is performed to detect the morphological changes in the retina. It is discovered that, compared to the control group, the retinas from 3 and 7 days post-IRI are markedly thinner. Additionally, lost RCGs or their disordered arrangement is observed at 3 and 7 days after IRI when compared with the control retina, as shown in FIGS. 2A and 2B. Next, the valdecoxib's effect on the RGCs in the FR model by HE staining and immunofluorescence. […] A TUNEL assay is performed to clarify whether valdecoxib's protective effect involves the anti-apoptosis mechanism. […]

[7] = test system: retina / RGCs (retinal ganglion cells); experiment: HE staining of retina in acute high intraocular pressure (aHIOP) retinal I/R model; type: in vivo, SD (Sprague-Dawley) rats; details: rat I/R model, 3 days post-injury, intravitreal injection
Protocol: as §2, §3

[8] = I/R, pretreated with valdecoxib

SMILES: CCN(CC)CCC(=O)N1N=C(c2c(-c3ccccc3)c3cc(Br)ccc3[nH]c2=O)CC1c1ccc(Br)cc1 (centres unmarked) [CCT020312]
- cell death (R28 cells [1]): no significant cell death
- bax expression level (Western blot) (PERK-ATF4-CHOP pathway [2]; CCT020312 pre-treated group): consistent with those of the PERK-ATF4-CHOP pathway proteins
- cleaved caspase 3 expression level (Western blot) (PERK-ATF4-CHOP pathway [2]; CCT020312 pre-treated group): consistent with those of the PERK-ATF4-CHOP pathway proteins
- expression of markers of ER stress and the PERK-ATF4-CHOP pathway (Western blot) (PERK-ATF4-CHOP pathway [2]; valdecoxib pretreatment prior to CCT020312, vs. OGD/R+VAL): reverses the valdecoxib's effects, increasing the expression

SMILES: Cc1onc(-c2ccccc2)c1-c1ccc(S(N)(=O)=O)cc1 [valdecoxib]
- cell survival rate (CCK-8) (R28 cells [3]; 1 μmol/L): significantly elevates
- cell survival rate (CCK-8) (R28 cells [3]; 1 μmol/L, listed as VAL): significant increase
- cell survival rate (CCK-8) (R28 cells [3]; 5 μmol/L): significantly elevates
- cell survival rate (CCK-8) (R28 cells [3]; 5 μmol/L, listed as VAL): significant increase
- bax expression (Western blot) (PERK-ATF4-CHOP pathway [4]; I/R injury): decreases the expression
- bcl-2 expression (Western blot) (PERK-ATF4-CHOP pathway [4]; I/R injury): opposite of that of the bax and cleaved caspase 3
- cleaved caspase 3 expression (Western blot) (PERK-ATF4-CHOP pathway [4]; I/R injury): decreases the expression
- ATF4 expression level (Western blot) (PERK-ATF4-CHOP pathway [4]; [8]): reduced
- CHOP expression level (Western blot) (PERK-ATF4-CHOP pathway [4]; [8]): reduced
- GRP78 expression (Western blot) (PERK-ATF4-CHOP pathway [4]; [8]): consistent with the PERK-ATF4-CHOP pathway proteins
- p-PERK expression level (Western blot) (PERK-ATF4-CHOP pathway [4]; [8]): reduced
- cell apoptosis rate (flow cytometry) (R28 cells [5]): decreases
- TUNEL-positive RGCs [6]: reduced
- ATF4 protein level (Western blot) (PERK-ATF4-CHOP pathway [2]; valdecoxib pretreatment): decrease the expression; also recorded: significantly reduces
- CHOP protein level (Western blot) (PERK-ATF4-CHOP pathway [2]; valdecoxib pretreatment): decrease the expression; also recorded: significantly reduces
- GRP78 protein level (Western blot) (PERK-ATF4-CHOP pathway [2]; valdecoxib pretreatment): decrease the expression; also recorded: significantly reduces
- bax protein level (Western blot) (PERK-ATF4-CHOP pathway [2]; valdecoxib pretreatment): decreased; also recorded: significantly reduces
- bcl-2 protein expression (Western blot) (PERK-ATF4-CHOP pathway [2]; valdecoxib pretreatment): opposite to that of the bax and cleaved caspase 3
- cleaved caspase 3 protein level (Western blot) (PERK-ATF4-CHOP pathway [2]; valdecoxib pretreatment): decreased; also recorded: significantly reduces
- p-PERK protein level (Western blot) (PERK-ATF4-CHOP pathway [2]; valdecoxib pretreatment): decrease the expression; also recorded: significantly reduces
- RGCs' survival rate [7]: significantly increases
- retinal thickness (HE staining) [7]: significantly increases
